Measurements taken from patent US20040018193A1 (priority 2002, published 2004).

Legend:
human neutrophils [1] = format: cell-based; conditions: cytokine-treated neutrophils; donor-dependent; FIGS. 10 and 11
[2] = test system: Vaccinia virus (strain WR); design: species or system Balb/C mice; conditions: mouse, in vivo
human neutrophils [3] = format: cell-based; conditions: for IL-8 production by neutrophils: cytokine-stimulated, FIG. 12
B. anthracis (Sterne) = test system: B. anthracis (Sterne); design: species or system A/J mice; conditions: mouse, in vivo; for mice still alive: ip
[4] = test system: primary murine splenocytes; design: species or system Balb/c mice; conditions: mouse, in vivo
Colon-26 cells = test system: Colon-26 cells; design: species or system Balb/c mice; conditions: mouse, in vivo
VEE virus [5] = test system: VEE virus; design: species or system mice; conditions: mouse, in vivo
VEE virus [6] = test system: VEE virus; design: species or system mice; conditions: mouse, in vivo; remark: listed apart in the source
vaccinia virus [7] = format: cell-based
[8] = test system: murine macrophages (RAW 264.7); format: cell-based
[9] = test system: Bacillus anthracis Sterne strain; design: species or system DBA/2 mice; conditions: mouse, in vivo
[10] = test system: murine peritoneal exudate cells; design: species or system Balb/c mice; conditions: mouse, in vivo
murine PECs = format: cell-based, BALB/c mice
vaccinia virus [11] = format: in vivo

IL-8: cytokine
superoxide anion levels (human neutrophils [1]): increased superoxide anion levels

IFN-α
mice remained alive [2]: 95% | mice still alive [2]: 95%

GM-CSF
IL-8 production by neutrophils (human neutrophils [3]): significantly increased | superoxide anion levels (human neutrophils [1]): increased superoxide anion levels | survival (B. anthracis (Sterne)): increased survival | mice still alive (B. anthracis (Sterne)): 25% | CD25 marker expression [4]: significant activation

IL-12: cytokine
cytolysis by NK/NKT cells (Colon-26 cells): significant increases | superoxide anion levels (human neutrophils [1]): increased superoxide anion levels | survival of lethally VEE-infected mice (VEE virus [5]): increased survival, but not significantly | survival (B. anthracis (Sterne)): increased survival | reduction of VEE titers in the lungs compared to control animals (VEE virus [6]): ~1.5 log10

platelet activating factor [PAF]
GM-CSF-induced IL-8 production (human neutrophils [3]; PAF added to GM-CSF, FIG. 13): enhances | IL-8 production by neutrophils (human neutrophils [3]): increased IL-8 production moderately

CC(=O)O.CNC(=N)NCCC[C@H](N)C(=O)O [L-NMA, N^G-monomethyl-L-arginine acetate, reference compound]
VV replication (vaccinia virus [7]): restored VV replication | NO production [8]: inhibit NO production

O=C(O)c1cn(C2CC2)c2cc(N3CCNCC3)c(F)cc2c1=O [ciprofloxacin]
survival [9]: 40%

B1: IFN-γ: cytokine interferon-gamma (protein, UniProt P01579 24-161, looked up)
Interferon gamma: QDPYVKEAENLKKYFNAGHSDVADNGTLFLGILKNWKEESDRKIMQSQIVSFYFKLFKNFKDDQSIQKSVETIKEDMNVKFFNSNKKKRDDFEKLTNYSVTDLNVQRKAIHELIQVMAELSPAAKTGKRKRSQMLFRG
effect of cytokine on cell wall-enhanced vaccinia virus clearance (vaccinia virus [7]): possible weak synergetic effect | plaque forming units relative to cell wall treatment (vaccinia virus [7]): reduced the number of plaque forming units even further | reduction in VV titer (vaccinia virus [7]): 95% | cytolysis by NK/NKT cells (Colon-26 cells): moderate increases | nitric oxide production by PECs [10]: significant increases | increase of cell wall-induced nitric oxide production (murine PECs): 10 to 20 µM | superoxide anion levels (human neutrophils [1]): increased superoxide anion levels | mice remained alive [2]: 100% | mice still alive [2]: 100% | protection against lethal VV (strain WR) challenge [2]: complete protection | survival of lethally VEE-infected mice (VEE virus [5]): increased survival | vaccinia virus-induced cytopathic effect (vaccinia virus [11]): appeared to be reduced | survival (B. anthracis (Sterne)): increased survival | mice still alive (B. anthracis (Sterne)): 10% | reduction of VEE titers in the lungs compared to control animals (VEE virus [6]): ~0.5 log10 | nitric oxide production [8]: increased nitric oxide production dramatically
